Earlier results in article PMC4008333 (Cancer chemotherapy and pharmacology, 2012).
Starred links: 1 amine or outer side, 2 acyl side, 3 side chain; linkers in the order of their positions; H or OH if unused. Positions of bridges follow the written chain, without caps; N, C: chain ends. Non-standard residues stand in square brackets, D forms with d. Residues, ends and D or L forms follow the SMILES beside them. Chains are numbered I, II in the order given. Actinocin(9to1) = Cc1c2oc3c(C)ccc(C(=O)[*:1])c3nc-2c(C(=O)[*:2])c(N)c1=O; NMeV = CN[C@H](C(=O)O)C(C)C; Sar = CNCC(=O)O

Details: historical model; point estimate (% RSE)

Which Q2 does the source give for `Cc1c2oc3c(C)ccc(C(=O)N[C@@H]4C(=O)N[C@H](C(C)C)C(=O)N5CCC[C@H]5C(=O)N(C)CC(=O)N(C)[C@@H](C(C)C)C(=O)O[C@@H]4C)c3nc-2c(C(=O)N[C@@H]2C(=O)N[C@H](C(C)C)C(=O)N3CCC[C@H]3C(=O)N(C)CC(=O)N(C)[C@@H](C(C)C)C(=O)O[C@@H]2C)c(N)c1=O` [AMD, actinomycin-D] (I: T[dV]P[Sar][NMeV] / II: T[dV]P[Sar][NMeV]; ester I:1-I:C, II:1-II:C; linker I:N-II:N via Actinocin(9to1)) here?
The Q2 was 11.4 (58.8) L/h/70 kg.

What about the Q3 of the same compound?
The Q3 was 25.2 (23.3) L/h/70 kg.

What about the V1 of the same compound?
Its V1 is 3.56 (39.3) L/70 kg.

And the V2?
The V2 was 16.1 (80.7) L/70 kg.

What about the V3 of the same compound?
The V3 was 367 (19.7) L/70 kg.
